# Data taken from patent publication EP4038059B1, “SUBSTITUTED CARBAZOLE COMPOUNDS” (Bristol-Myers Squibb Company, priority 2019, dated 2021).
# How the values were obtained:
# Type in all cases: cell-based
# [1] = biological target: T1, human TLR7 (Homo sapiens, UniProt Q9NYK1); assay: TLR7 inhibition reporter assay (HEK-Blue SEAP); settings: HEK-Blue cells overexpressing human TLR7, stimulated with gardiquimod 7.5 µM, 22 h incubation
# T1 construct: host or cells: HEK-Blue cells
# T1 sequence (Q9NYK1 27-1049): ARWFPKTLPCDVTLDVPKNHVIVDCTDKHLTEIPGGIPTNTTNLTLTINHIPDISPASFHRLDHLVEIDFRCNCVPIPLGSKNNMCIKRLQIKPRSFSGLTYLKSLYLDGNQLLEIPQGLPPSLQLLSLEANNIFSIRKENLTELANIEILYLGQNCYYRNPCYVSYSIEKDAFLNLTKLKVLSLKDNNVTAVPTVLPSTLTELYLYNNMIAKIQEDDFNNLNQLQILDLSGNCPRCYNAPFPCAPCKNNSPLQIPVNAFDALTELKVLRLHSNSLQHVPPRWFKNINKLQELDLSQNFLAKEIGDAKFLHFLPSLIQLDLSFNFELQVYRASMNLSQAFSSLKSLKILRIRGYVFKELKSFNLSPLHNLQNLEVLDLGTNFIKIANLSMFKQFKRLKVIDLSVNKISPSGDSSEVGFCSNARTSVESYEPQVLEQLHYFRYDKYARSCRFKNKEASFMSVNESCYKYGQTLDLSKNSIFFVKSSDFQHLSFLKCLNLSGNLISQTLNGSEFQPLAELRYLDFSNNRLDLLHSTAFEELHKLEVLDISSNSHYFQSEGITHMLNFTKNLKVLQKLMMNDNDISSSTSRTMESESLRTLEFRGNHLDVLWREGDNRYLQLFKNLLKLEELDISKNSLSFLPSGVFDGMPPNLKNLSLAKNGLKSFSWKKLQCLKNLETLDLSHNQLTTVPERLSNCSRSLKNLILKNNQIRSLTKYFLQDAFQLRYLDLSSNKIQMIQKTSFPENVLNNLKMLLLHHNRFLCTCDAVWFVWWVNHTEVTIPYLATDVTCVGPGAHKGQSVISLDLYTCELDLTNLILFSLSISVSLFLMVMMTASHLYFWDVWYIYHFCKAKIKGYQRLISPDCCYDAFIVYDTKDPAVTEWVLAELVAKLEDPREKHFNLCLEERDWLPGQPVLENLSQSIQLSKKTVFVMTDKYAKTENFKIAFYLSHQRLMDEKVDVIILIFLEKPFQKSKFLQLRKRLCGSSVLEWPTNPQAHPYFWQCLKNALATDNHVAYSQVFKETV
# Method: (§1) HEK-Blue™-cells (Invivogen) overexpressing human TLR7, TLR8 or TLR9 receptors were used for screening inhibitors of these receptors using an inducible SEAP (secreted embryonic alkaline phosphatase) reporter gene under the control of the IFN-β minimal promoter fused to five NF-κB and AP-1-binding sites. Briefly, cells are seeded into Greiner 384 well plates (15000 cells per well for TLR7, 20,000 for TLR8 and 25,000 for TLR9) and then treated with test compounds in DMSO to yield a final dose response concentration range of 0.05 nM - 50 µM. After a 30 minute compound pre-treatment at room temperature, the cells are then stimulated with a TLR7 ligand (gardiquimod at a final concentration of 7.5 µM), TLR8 ligand (R848 at a final concentration of 15.9 µM) or TLR9 ligand (ODN2006 at a final concentration of 5 nM) to activate NF-κB and AP-1 which induce the production of SEAP. After a 22 h incubation at 37°C, 5% CO2, SEAP levels are determined with the addition of HEK-Blue™ Detection reagent (Invivogen), a cell culture medium that allows for detection of SEAP, according to manufacturer's specifications. The percent inhibition is determined as the % reduction in the HEK-Blue signal present in wells treated with agonist plus DMSO alone compared to wells treated with a known inhibitor.
# [2] = biological target: T2, human TLR8 (Homo sapiens, UniProt Q9NR97); assay: TLR8 inhibition reporter assay (HEK-Blue SEAP); settings: HEK-Blue cells overexpressing human TLR8, stimulated with R848 15.9 µM, 22 h incubation
# T2 construct: host or cells: HEK-Blue cells
# T2 sequence (Q9NR97 27-1041): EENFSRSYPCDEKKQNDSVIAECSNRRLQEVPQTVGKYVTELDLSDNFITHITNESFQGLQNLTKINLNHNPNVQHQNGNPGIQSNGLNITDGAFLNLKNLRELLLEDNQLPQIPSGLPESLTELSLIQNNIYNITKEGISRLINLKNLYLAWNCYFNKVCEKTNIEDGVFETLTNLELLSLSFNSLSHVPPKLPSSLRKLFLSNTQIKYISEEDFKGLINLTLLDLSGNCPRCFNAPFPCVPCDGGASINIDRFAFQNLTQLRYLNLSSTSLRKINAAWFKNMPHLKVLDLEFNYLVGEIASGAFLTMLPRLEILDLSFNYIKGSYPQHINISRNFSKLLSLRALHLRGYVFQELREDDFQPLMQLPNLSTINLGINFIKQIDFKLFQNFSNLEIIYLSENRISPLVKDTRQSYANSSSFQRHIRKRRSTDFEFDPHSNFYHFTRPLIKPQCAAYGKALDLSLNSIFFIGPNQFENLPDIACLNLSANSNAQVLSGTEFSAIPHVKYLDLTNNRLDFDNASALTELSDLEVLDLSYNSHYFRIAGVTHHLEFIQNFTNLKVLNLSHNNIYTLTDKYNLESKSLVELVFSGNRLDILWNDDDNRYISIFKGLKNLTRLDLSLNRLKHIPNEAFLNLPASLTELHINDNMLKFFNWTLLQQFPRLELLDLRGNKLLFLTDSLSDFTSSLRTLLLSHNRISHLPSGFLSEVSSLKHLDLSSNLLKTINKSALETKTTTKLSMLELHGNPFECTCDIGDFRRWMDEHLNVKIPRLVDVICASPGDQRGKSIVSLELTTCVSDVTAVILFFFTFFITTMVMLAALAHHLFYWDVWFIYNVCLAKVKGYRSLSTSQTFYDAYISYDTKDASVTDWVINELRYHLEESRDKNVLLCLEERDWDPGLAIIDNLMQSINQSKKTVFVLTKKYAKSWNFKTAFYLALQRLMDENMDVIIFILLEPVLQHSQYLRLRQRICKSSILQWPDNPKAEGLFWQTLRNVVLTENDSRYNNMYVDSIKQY
# Method: as §1
# [3] = biological target: T3, human TLR9 (Homo sapiens, UniProt Q9NR96); assay: TLR9 inhibition reporter assay (HEK-Blue SEAP); settings: HEK-Blue cells overexpressing human TLR9, stimulated with ODN2006 5 nM, 22 h incubation
# T3 construct: host or cells: HEK-Blue cells
# T3 sequence (Q9NR96 26-1032): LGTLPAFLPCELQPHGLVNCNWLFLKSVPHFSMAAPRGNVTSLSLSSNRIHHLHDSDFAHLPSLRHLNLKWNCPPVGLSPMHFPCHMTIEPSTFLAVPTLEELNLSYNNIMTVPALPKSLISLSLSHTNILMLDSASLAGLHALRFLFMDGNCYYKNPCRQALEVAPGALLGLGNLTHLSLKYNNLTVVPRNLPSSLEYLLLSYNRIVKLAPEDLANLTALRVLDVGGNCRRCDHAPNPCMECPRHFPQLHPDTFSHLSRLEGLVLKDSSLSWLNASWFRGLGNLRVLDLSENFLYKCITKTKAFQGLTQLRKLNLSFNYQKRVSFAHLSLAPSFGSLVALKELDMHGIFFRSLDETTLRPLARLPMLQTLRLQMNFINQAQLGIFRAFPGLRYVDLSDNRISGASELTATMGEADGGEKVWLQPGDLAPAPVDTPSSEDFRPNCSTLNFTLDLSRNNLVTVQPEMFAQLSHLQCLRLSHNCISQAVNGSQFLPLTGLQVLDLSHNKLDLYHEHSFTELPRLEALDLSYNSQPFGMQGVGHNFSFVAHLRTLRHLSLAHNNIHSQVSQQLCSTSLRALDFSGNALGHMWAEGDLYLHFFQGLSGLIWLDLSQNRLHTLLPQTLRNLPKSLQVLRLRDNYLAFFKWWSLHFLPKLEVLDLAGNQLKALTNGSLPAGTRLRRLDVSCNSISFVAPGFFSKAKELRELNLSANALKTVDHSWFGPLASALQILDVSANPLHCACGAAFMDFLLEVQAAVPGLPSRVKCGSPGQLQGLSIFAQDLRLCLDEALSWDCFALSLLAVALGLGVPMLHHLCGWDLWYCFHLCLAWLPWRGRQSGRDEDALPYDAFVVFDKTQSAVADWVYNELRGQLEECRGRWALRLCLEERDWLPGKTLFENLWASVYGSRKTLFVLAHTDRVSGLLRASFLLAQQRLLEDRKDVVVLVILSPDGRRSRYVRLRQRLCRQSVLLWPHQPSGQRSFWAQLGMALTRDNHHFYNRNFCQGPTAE
# Method: as §1
SMILES,IC50 [1] [nM],IC50 [2] [nM],IC50 [3] [nM]
"Cc1c(-c2cc(C)c3c(c2)[nH]c2ccc(C4CCN(CC(C)(C)O)CC4)cc23)cn(C)c(=O)c1C [Example 18, 5-(6-(1-(2-Hydroxy-2-methylpropyl)piperidin-4-yl)-4-methyl-9H-carbazol-2-yl)-1,3,4-trimethylpyridin-2(1H)-one]",3.2,0.9,650
"Cc1c(-c2ccc3c(c2)[nH]c2ccc(C4CCNCC4)cc23)cn(C)c(=O)c1C [Example 5, 1,3,4-trimethyl-5-(6-(piperidin-4-yl)-9H-carbazol-2-yl)pyridin-2(1H)-one]",16,29,182
"c1cncc(-c2ccc3c(c2)[nH]c2ccc(C4CCNCC4)cc23)c1 [Example 4, 6-(piperidin-4-yl)-2-(pyridin-3-yl)-9H-carbazole]",1470,1800,541
Cc1cc(-c2cc(C)c3c(c2)[nH]c2ccc(C4CCNCC4)cc23)cc(C)n1 [Example 11],2.4,21,40
"Cn1cc(-c2ccc3c(c2)[nH]c2ccc(C4CCNCC4)cc23)cn1 [Example 8, 2-(1-methyl-1H-pyrazol-4-yl)-6-(piperidin-4-yl)-9H-carbazole]",1380,861,648
"c1cc(-c2ccc3c(c2)[nH]c2ccc(C4CCNCC4)cc23)ccn1 [Example 9, 6-(Piperidin-4-yl)-2-(pyridin-4-yl)-9H-carbazole]",383,61,302
"CC(=O)Nc1ccc2c(c1)[nH]c1ccc(C3CCNCC3)cc12 [Example 7, N-(6-(piperidin-4-yl)-9H-carbazol-2-yl)acetamide]",> 3130,> 3130,1060
"Cc1noc(C)c1-c1ccc2c(c1)[nH]c1ccc(C3CCNCC3)cc12 [Example 1, 3,5-dimethyl-4-(6-(piperidin-4-yl)-9H-carbazol-2-yl)isoxazole]",651,209,1060

# Now from value to molecule:
IC50 [1] [nM],IC50 [2] [nM],IC50 [3] [nM],SMILES
1.3,2.5,321,COc1cc(-c2cc3[nH]c4ccc(C5CCCN(CC#N)C5)cc4c3c(C)c2C)cn2ncnc12 (centres unmarked) [Example 34]
8.1,1.2,587,COc1cc(-c2cc3[nH]c4ccc(C5CCCN(CC(C)(C)O)C5)cc4c3c(C)c2C)cn2ncnc12 (centres unmarked) [Example 31]
1.5,12,60,Cc1cc(-c2cc(C)c3c(c2)[nH]c2ccc(C4CCN(CC(C)(C)O)CC4)cc23)cc(C)n1 [Example 21]
9.4,2,802,COc1cc(-c2cc3[nH]c4ccc(C5CCCN(CCS(C)(=O)=O)C5)cc4c3c(C)c2C)cn2ncnc12 (centres unmarked) [Example 32]
,1.3,1050,COc1cc(-c2cc3[nH]c4ccc(C5CN(C6CCOCC6)C5)cc4c3c(C)c2C)cn2ncnc12 [Example 37]
1.9,2.1,224,COc1cc(-c2cc(C)c3c(c2)[nH]c2ccc(C4CCN(CC(C)(C)O)CC4)cc23)cn2ncnc12 [Example 20]
15.5,2.2,1230,COc1cc(-c2cc3[nH]c4ccc(C5CCCN(C6COC6)C5)cc4c3c(C)c2C)cn2ncnc12 (centres unmarked) [Example 33]
3.1,1,228,"COc1cc(-c2cc3[nH]c4ccc(C5CNC5)cc4c3c(C)c2C)cn2ncnc12 [Example 29, 6-(azetidin-3-yl)-2-(8-methoxy-[1,2,4]triazolo[1,5-a]pyridin-6-yl)-3,4-dimethyl-9H-carbazole]"
4.5,3.3,845,COc1cc(-c2cc3[nH]c4ccc(C5CN(C(=O)CN(C)C)C5)cc4c3c(C)c2C)cn2ncnc12 [Example 35]
1.3,1.6,271,"COc1cc(-c2cc3[nH]c4ccc(C5CCCNC5)cc4c3c(C)c2C)cn2ncnc12 (centres unmarked) [Example 26, 2-(8-methoxy-[1,2,4]triazolo[1,5-a]pyridin-6-yl)-3,4-dimethyl-6-(piperidin-3-yl)-9H-carbazole]"
4.1,0.9,259,COc1cc(-c2cc3[nH]c4ccc(C5CCN(CC(C)(C)O)CC5)cc4c3cc2C)cn2ncnc12 [Example 23]
